The data set relates to CCRIS mutagenicity, Ames/micronucleus/aberration tests. Kind of data set: CCRIS mutagenicity studies.
Where [1] appears, read: Test System: AMES SALMONELLA TYPHIMURIUM, Strain/Indicator: TA98, Metabolic Activation: NONE, Method: STANDARD PLATE.
Setting [2] is: Test System: AMES SALMONELLA TYPHIMURIUM, Strain/Indicator: TA100, Metabolic Activation: NONE, Method: STANDARD PLATE.
Setting [3] is: Test System: AMES SALMONELLA TYPHIMURIUM, Strain/Indicator: TA100, Metabolic Activation: RAT, LIVER, S-9, AROCLOR 1254, Method: STANDARD PLATE.
[4] abbreviates: Test System: AMES SALMONELLA TYPHIMURIUM, Strain/Indicator: TA1535, Metabolic Activation: NONE, Method: STANDARD PLATE.
[5] abbreviates: Test System: AMES SALMONELLA TYPHIMURIUM, Strain/Indicator: TA1535, Metabolic Activation: RAT, LIVER, S-9, AROCLOR 1254, Method: STANDARD PLATE.

Active and inactive are the calls of the source. No rule for the calls is given here.

Take `CN(C)c1ccc(C(=O)c2ccc(N(C)C)cc2)cc1`: the mutagenic call reads like this: (Test System: AMES SALMONELLA TYPHIMURIUM, Strain/Indicator: TA98, Metabolic Activation: MOUSE, LIVER, S-9, AROCLOR 1254, Method: STANDARD PLATE) “inactive; negative”; (Test System: AMES SALMONELLA TYPHIMURIUM, Strain/Indicator: TA98, Metabolic Activation: MOUSE, LIVER, S-9, Method: STANDARD PLATE) “inactive; negative”; under setting [1], “inactive; negative”; (Test System: AMES SALMONELLA TYPHIMURIUM, Strain/Indicator: TA98, Metabolic Activation: RAT, LIVER, S-9, Method: STANDARD PLATE) “inactive; negative”; (Test System: AMES SALMONELLA TYPHIMURIUM, Strain/Indicator: TA100, Metabolic Activation: HAMSTER, LIVER, S-9, AROCLOR 1254, Method: STANDARD PLATE) “inactive; negative”; (Test System: AMES SALMONELLA TYPHIMURIUM, Strain/Indicator: TA100, Metabolic Activation: HAMSTER, LIVER, S-9, Method: STANDARD PLATE) “inactive; negative”. Besides, the mutagenic call runs as follows: (Test System: AMES SALMONELLA TYPHIMURIUM, Strain/Indicator: TA100, Metabolic Activation: MOUSE, LIVER, S-9, Method: STANDARD PLATE) “inactive; negative”; under setting [2], “inactive; negative”; under setting [3], “inactive; negative”; (Test System: AMES SALMONELLA TYPHIMURIUM, Strain/Indicator: TA100, Metabolic Activation: RAT, LIVER, S-9, Method: STANDARD PLATE) “inactive; negative”; (Test System: AMES SALMONELLA TYPHIMURIUM, Strain/Indicator: TA1535, Metabolic Activation: HAMSTER, LIVER, S-9, AROCLOR 1254, Method: STANDARD PLATE) “inactive; negative”; (Test System: AMES SALMONELLA TYPHIMURIUM, Strain/Indicator: TA1535, Metabolic Activation: HAMSTER, LIVER, S-9, Method: STANDARD PLATE) “inactive; negative”. Besides, the mutagenic call is, setting by setting: (Test System: AMES SALMONELLA TYPHIMURIUM, Strain/Indicator: TA1535, Metabolic Activation: MOUSE, LIVER, S-9, AROCLOR 1254, Method: STANDARD PLATE) “inactive; negative”; (Test System: AMES SALMONELLA TYPHIMURIUM, Strain/Indicator: TA1535, Metabolic Activation: MOUSE, LIVER, S-9, Method: STANDARD PLATE) “inactive; negative”; under setting [4], “inactive; negative”; under setting [5], “inactive; negative”; (Test System: AMES SALMONELLA TYPHIMURIUM, Strain/Indicator: TA1535, Metabolic Activation: RAT, LIVER, S-9, Method: STANDARD PLATE) “inactive; negative”; (Test System: AMES SALMONELLA TYPHIMURIUM, Strain/Indicator: TA1537, Metabolic Activation: HAMSTER, LIVER, S-9, AROCLOR 1254, Method: STANDARD PLATE) “inactive; negative”. Moreover, the mutagenic call (Test System: AMES SALMONELLA TYPHIMURIUM, Strain/Indicator: TA1537, Metabolic Activation: MOUSE, LIVER, S-9, AROCLOR 1254, Method: STANDARD PLATE) is “inactive; negative”; the mutagenic call (Test System: AMES SALMONELLA TYPHIMURIUM, Strain/Indicator: TA1537, Metabolic Activation: MOUSE, LIVER, S-9, Method: STANDARD PLATE) was “inactive; negative”; the mutagenic call (Test System: AMES SALMONELLA TYPHIMURIUM, Strain/Indicator: TA1537, Metabolic Activation: NONE, Method: STANDARD PLATE) was “inactive; negative”; the mutagenic call (Test System: AMES SALMONELLA TYPHIMURIUM, Strain/Indicator: TA1537, Metabolic Activation: RAT, LIVER, S-9, AROCLOR 1254, Method: STANDARD PLATE) was “inactive; negative”; the mutagenic call (Test System: AMES SALMONELLA TYPHIMURIUM, Strain/Indicator: TA1537, Metabolic Activation: RAT, LIVER, S-9, Method: STANDARD PLATE) was “inactive; negative”; the mutagenic call (Test System: AMES SALMONELLA TYPHIMURIUM, Strain/Indicator: TA1538, Metabolic Activation: MOUSE, LIVER, S-9, Method: STANDARD PLATE) was “inactive; negative”. Further, the mutagenic call runs as follows: (Test System: AMES SALMONELLA TYPHIMURIUM, Strain/Indicator: TA1538, Metabolic Activation: NONE, Method: STANDARD PLATE) “inactive; negative”; (Test System: AMES SALMONELLA TYPHIMURIUM, Strain/Indicator: TA1538, Metabolic Activation: RAT, LIVER, S-9, Method: STANDARD PLATE) “inactive; negative”; (Test System: E. COLI, Strain/Indicator: WP2 UVRA, Metabolic Activation: HAMSTER, LIVER, S-9, AROCLOR 1254, Method: STANDARD PLATE) “inactive; negative”; (Test System: E. COLI, Strain/Indicator: WP2 UVRA, Metabolic Activation: HAMSTER, LIVER, S-9, Method: STANDARD PLATE) “inactive; negative”; (Test System: E. COLI, Strain/Indicator: WP2 UVRA, Metabolic Activation: MOUSE, LIVER, S-9, AROCLOR 1254, Method: STANDARD PLATE) “inactive; negative”; (Test System: E. COLI, Strain/Indicator: WP2 UVRA, Metabolic Activation: MOUSE, LIVER, S-9, Method: STANDARD PLATE) “inactive; negative”. Further, the mutagenic call (Test System: E. COLI, Strain/Indicator: WP2 UVRA, Metabolic Activation: NONE, Method: STANDARD PLATE) was “inactive; negative”; the mutagenic call (Test System: E. COLI, Strain/Indicator: WP2 UVRA, Metabolic Activation: RAT, LIVER, S-9, AROCLOR 1254, Method: STANDARD PLATE) was “inactive; negative”; the mutagenic call (Test System: E. COLI, Strain/Indicator: WP2 UVRA, Metabolic Activation: RAT, LIVER, S-9, Method: STANDARD PLATE) is “inactive; negative”.
Consider `Cn1cnc2c3cccnc3ccc21`, for which the mutagenic call was “active; positive” (Test System: AMES SALMONELLA TYPHIMURIUM, Strain/Indicator: TA98, Metabolic Activation: NONE, Method: PREINCUBATION); “active; positive” (Test System: AMES SALMONELLA TYPHIMURIUM, Strain/Indicator: TA98, Metabolic Activation: RAT, LIVER, S-9, AROCLOR 1254, Method: PREINCUBATION); “active; positive” (Test System: AMES SALMONELLA TYPHIMURIUM, Strain/Indicator: TA100, Metabolic Activation: NONE, Method: PREINCUBATION); “active; positive” (Test System: AMES SALMONELLA TYPHIMURIUM, Strain/Indicator: TA100, Metabolic Activation: RAT, LIVER, S-9, AROCLOR 1254, Method: PREINCUBATION).
Consider `Nc1cccc2c1-c1ccccc1C2`, for which the mutagenic call runs as follows: (Test System: AMES SALMONELLA TYPHIMURIUM, Strain/Indicator: TA98, Metabolic Activation: RAT, LIVER, S-9, AROCLOR 1254 (2 OR 4%), Method: STANDARD PLATE) “active; positive”; (Test System: AMES SALMONELLA TYPHIMURIUM, Strain/Indicator: TA100, Metabolic Activation: RAT, LIVER, S-9, AROCLOR 1254 (2%), Method: STANDARD PLATE) “active; positive”; (Test System: AMES SALMONELLA TYPHIMURIUM, Strain/Indicator: TA1535, Metabolic Activation: RAT, LIVER, S-9, AROCLOR 1254 (2%), Method: STANDARD PLATE) “inactive; negative”; (Test System: AMES SALMONELLA TYPHIMURIUM, Strain/Indicator: TA1537, Metabolic Activation: RAT, LIVER, S-9, AROCLOR 1254 (2%), Method: STANDARD PLATE) “inactive; negative”.
For `CCC1(O)C(=O)OCc2c1cc1n(c2=O)Cc2cc3c(N)cccc3nc2-1` (stereo not drawn), the mutagenic call by setting is: (Test System: Mouse lymphoma, Strain/Indicator: L5178Y (tk+/tk-), Metabolic Activation: None, Method: Suspension/plate) “active; positive”; (Test System: Mouse lymphoma, Strain/Indicator: L5178Y (tk+/tk-), Metabolic Activation: Rat, Liver, S-9, Aroclor 1254, Method: Suspension/plate) “active; positive”.
For the compound `CN(C)C1Cc2cccc3cccc(c23)C1`, the mutagenic call is “inactive; negative” (Test System: AMES SALMONELLA TYPHIMURIUM, Strain/Indicator: TA97, Metabolic Activation: NONE, Method: STANDARD PLATE); “inactive; negative” (Test System: AMES SALMONELLA TYPHIMURIUM, Strain/Indicator: TA97, Metabolic Activation: RAT, LIVER, S-9, AROCLOR 1254, Method: STANDARD PLATE); “inactive; negative” under setting [1]; “active; positive” (Test System: AMES SALMONELLA TYPHIMURIUM, Strain/Indicator: TA98, Metabolic Activation: RAT, LIVER, S-9, AROCLOR 1254, Method: STANDARD PLATE); “inactive; negative” under setting [2]; “inactive; negative” under setting [3]. For the same compound, the mutagenic call by setting is: (Test System: AMES SALMONELLA TYPHIMURIUM, Strain/Indicator: TA102, Metabolic Activation: NONE, Method: STANDARD PLATE) “inactive; negative”; (Test System: AMES SALMONELLA TYPHIMURIUM, Strain/Indicator: TA102, Metabolic Activation: RAT, LIVER, S-9, AROCLOR 1254, Method: STANDARD PLATE) “inactive; negative”; under setting [4], “inactive; negative”; under setting [5], “inactive; negative”.

Source of the values: PubChem BioAssay AID1259407 (Chemical Carcinogenesis Research Information System (CCRIS), 2018).
